Assay results published in PMC11397358, “Cytotoxic Activity of Novel GnRH Analogs Conjugated with Mitoxantrone in Ovarian Cancer Cells” (Molecules, 2024).

System: SKOV-3 cells
Test: Confocal microscopy of intracellular mitoxantrone fluorescence, quantified with Image J
Assay type: cell-based, human
Details: 6 h; for localization of mitoxantrone fluorescence, in words: 1 μM, Hoechst nuclear stain; for effect of cisplatin on intracellular accumulation of mitoxantrone, in words: 1 μΜ, cisplatin 30 μg/mL for 1 h before treatment
Description: To determine the accumulation of mitoxantrone within the SKOV-3 cells, we used confocal microscopy, exploiting the ability of mitoxantrone to fluoresce. Specifically, the excitation maxima of mitoxantrone are at 610 and 660 nm, whereas its emission maximum is at 685 nm. To stain the nuclei, we used the Hoechst dye. […] In contrast, the fluorescence signal was absent in untreated cells.
(§1) Figure 9 Confocal microscopy images of SKOV-3 cells treated with or without the GnRH-mitoxantrone conjugates, Con-3, Con-7 or mitoxantrone at a concentration of 1 μΜ for 6 h at 37 °C. At the end of the incubation, the cell nuclei were stained with the DNA-staining Hoechst 33342 dye and confocal fluorescent images were obtained after sequential excitation at 350 nm (for the Hoechst dye) and 638 nm (for the mitoxantrone). The emission filters of 461 nm and 650 nm–700 nm were used for collecting blue (Hoechst dye) and red (mitoxantrone) signals in separate channels. The left images show the nuclei staining with Hoechst dye (blue), whereas the middle ones depict the mitoxantrone fluorescence (red). The right images were created by merging the […] and middle ones and depict the localization of mitoxantrone (red) in both the cytoplasm and the nuclei. The figures are shown from a representative experiment performed three times with similar results.
We hypothesized that the GnRH-conjugated mitoxantrone of Con-3 and Con-7 entered the SKOV-3 cells after the reduction in the disulfide bond linking the GnRH analogs with mitoxantrone and subsequent release of the latter from the conjugates. This chemical reaction could be accomplished by the thioredoxin system, which is overexpressed in cancer cells and reduces the disulfide bonds of proteins and peptides. To verify this hypothesis, we incubated the SKOV-3 cells with cisplatin at a concentration of 30 μg/mL for 1 h before treating them with Con-3 or Con-7 conjugates. Cisplatin is a potent inhibitor of the thioredoxin system.
as §1, with “Figure 10” for “Figure 9”, “with” for “with or without”, “conjugates, Con-3 or” for “conjugates, Con-3,”, “Con-7 (1” for “Con-7 or mitoxantrone at a concentration of 1”, “6 h)” for “6 h”, “37 °C, in the presence or absence of cisplatin. Cisplatin was added to the cells 1 h before their incubation with the GnRH-mitoxantrone conjugates.” for “37 °C.”
Figure 11 Confocal microscopy images of SKOV-3 cells treated with mitoxantrone (1 μΜ for 6 h) at 37 °C, in the presence or absence of cisplatin. Cisplatin was added to the cells 1 h before their incubation with mitoxantrone. At the end of the incubation, the cell nuclei were stained with the DNA-staining Hoechst 33342 dye and confocal fluorescent images were obtained after sequential excitation at 350 nm (for the Hoechst dye) and 638 nm (for the mitoxantrone). The emission filters of 461 nm and 650 nm–700 nm were used for collecting blue (Hoechst dye) and red (mitoxantrone) signals in separate channels. The left images show the nuclei staining with Hoechst dye (blue), whereas the middle ones depict the mitoxantrone fluorescence (red). […]

SMILES	localization of mitoxantrone fluorescence, in words	effect of cisplatin on intracellular accumulation of mitoxantrone, in words
CCNC(=O)[C@@H]1CCCN1C(=O)[C@H](CCCNC(=N)N)NC(=O)[C@H](CC(C)C)NC(=O)[C@@H](CSSCCC(=O)OCCNCCNc1ccc(NCCNCCO)c2c1C(=O)c1c(O)ccc(O)c1C2=O)NC(=O)[C@H](Cc1ccc(O)cc1)NC(=O)[C@H](CO)NC(=O)[C@H](Cc1c[nH]c2ccccc12)NC(=O)[C@H](Cc1c[nH]cn1)NC(=O)[C@@H]1CCC(=O)N1 [Con-3]	detected in both the cytoplasm and nucleus	abolished the accumulation of mitoxantrone
CCNC(=O)[C@@H]1CCCN1C(=O)[C@H](CCCNC(=N)N)NC(=O)[C@H](CC(C)C)NC(=O)[C@@H](CCCCNC(=O)CCCCCNC(=O)CCSSCC(=O)OCCNCCNc1ccc(NCCNCCO)c2c1C(=O)c1c(O)ccc(O)c1C2=O)NC(=O)[C@H](Cc1ccc(O)cc1)NC(=O)[C@H](CO)NC(=O)[C@H](Cc1c[nH]c2ccccc12)NC(=O)[C@H](Cc1c[nH]cn1)NC(=O)[C@@H]1CCC(=O)N1 [Con-7]	detected in both the cytoplasm and nucleus	abolished the accumulation of mitoxantrone
O=C1c2c(O)ccc(O)c2C(=O)c2c(NCCNCCO)ccc(NCCNCCO)c21 [mitoxantrone]	detected in both the cytoplasm and nucleus	did not affect the intracellular accumulation
